Laboratory results from ChEMBL document CHEMBL1201862, “PubChem BioAssay data set” (2004).
One block for each molecule: values may come before it. Calls of active or inactive are those of the source.

Key:
[1] = molecular target: T1, Aspartyl aminopeptidase (Plasmodium falciparum 3D7, UniProt Q8I2J3); assay: Counterscreen for inhibitors of M1 and M17 aminopeptidases: QFRET-based biochemical high throughput dose response assay for inhibitors of the Plasmodium falciparum M18 Aspartyl Aminopeptidase (PFM18AAP). [Related PubChem assays: 1619 (Screening assay (M17LAP inhibitors).), 1445 (Screening assay (M1AAP inhibitors).)]
T1 sequence (Q8I2J3 whole entry): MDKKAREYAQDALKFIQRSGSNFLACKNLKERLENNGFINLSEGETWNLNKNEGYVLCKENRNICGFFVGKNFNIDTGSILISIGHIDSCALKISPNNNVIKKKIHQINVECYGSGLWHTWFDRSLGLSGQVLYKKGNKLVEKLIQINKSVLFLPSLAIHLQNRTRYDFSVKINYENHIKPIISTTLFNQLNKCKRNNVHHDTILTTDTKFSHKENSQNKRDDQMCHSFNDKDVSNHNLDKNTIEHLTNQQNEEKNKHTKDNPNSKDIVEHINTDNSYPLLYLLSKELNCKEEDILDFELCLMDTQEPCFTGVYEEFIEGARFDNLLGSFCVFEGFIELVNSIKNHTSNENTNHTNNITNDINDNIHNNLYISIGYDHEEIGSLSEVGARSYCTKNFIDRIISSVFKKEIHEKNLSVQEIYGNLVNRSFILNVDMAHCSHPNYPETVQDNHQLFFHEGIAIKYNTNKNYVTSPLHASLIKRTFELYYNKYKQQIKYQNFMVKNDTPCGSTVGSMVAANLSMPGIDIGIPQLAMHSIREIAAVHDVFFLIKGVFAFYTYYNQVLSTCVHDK

[2] = molecular target: T2, Corticotropin-releasing factor receptor 2/Corticotropin-releasing factor-binding protein (Homo sapiens, UniProt P24387+Q13324); assay: Dose Response confirmation of uHTS hits for small molecule antagonists of the CRF-binding protein and CRF-R2 receptor complex.; format: functional; details: read-out: IC50_Mean
T2 sequence (Q13324 whole entry): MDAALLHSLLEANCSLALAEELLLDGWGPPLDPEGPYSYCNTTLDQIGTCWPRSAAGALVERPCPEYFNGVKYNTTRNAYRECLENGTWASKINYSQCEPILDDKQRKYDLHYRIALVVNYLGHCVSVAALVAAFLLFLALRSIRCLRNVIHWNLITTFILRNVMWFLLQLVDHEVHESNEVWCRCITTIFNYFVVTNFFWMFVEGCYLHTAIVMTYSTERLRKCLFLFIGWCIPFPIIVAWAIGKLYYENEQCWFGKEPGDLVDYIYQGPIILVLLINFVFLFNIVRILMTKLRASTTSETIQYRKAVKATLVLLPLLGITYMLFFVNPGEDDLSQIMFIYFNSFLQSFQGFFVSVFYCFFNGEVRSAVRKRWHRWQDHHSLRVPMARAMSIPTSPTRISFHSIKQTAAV
T2 sequence (P24387 whole entry): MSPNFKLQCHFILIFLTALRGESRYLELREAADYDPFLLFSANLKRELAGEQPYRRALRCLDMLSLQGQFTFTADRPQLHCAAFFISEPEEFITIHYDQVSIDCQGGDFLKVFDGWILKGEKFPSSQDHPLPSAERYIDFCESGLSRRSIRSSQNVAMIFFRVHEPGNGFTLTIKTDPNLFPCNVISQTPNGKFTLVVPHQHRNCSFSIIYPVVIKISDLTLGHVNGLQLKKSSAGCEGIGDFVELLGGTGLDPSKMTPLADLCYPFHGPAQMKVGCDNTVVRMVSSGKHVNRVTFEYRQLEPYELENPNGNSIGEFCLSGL

[3] = molecular target: T3, Leucine aminopeptidase (Plasmodium falciparum 3D7, UniProt Q8IL11); assay: P. falciparum M17LAP inhibitors, primary screen, biochemical, fluorogenic H-Leu-NHMec substrate, 1536-well (AID 1619); format: functional
T3 sequence (Q8IL11 whole entry): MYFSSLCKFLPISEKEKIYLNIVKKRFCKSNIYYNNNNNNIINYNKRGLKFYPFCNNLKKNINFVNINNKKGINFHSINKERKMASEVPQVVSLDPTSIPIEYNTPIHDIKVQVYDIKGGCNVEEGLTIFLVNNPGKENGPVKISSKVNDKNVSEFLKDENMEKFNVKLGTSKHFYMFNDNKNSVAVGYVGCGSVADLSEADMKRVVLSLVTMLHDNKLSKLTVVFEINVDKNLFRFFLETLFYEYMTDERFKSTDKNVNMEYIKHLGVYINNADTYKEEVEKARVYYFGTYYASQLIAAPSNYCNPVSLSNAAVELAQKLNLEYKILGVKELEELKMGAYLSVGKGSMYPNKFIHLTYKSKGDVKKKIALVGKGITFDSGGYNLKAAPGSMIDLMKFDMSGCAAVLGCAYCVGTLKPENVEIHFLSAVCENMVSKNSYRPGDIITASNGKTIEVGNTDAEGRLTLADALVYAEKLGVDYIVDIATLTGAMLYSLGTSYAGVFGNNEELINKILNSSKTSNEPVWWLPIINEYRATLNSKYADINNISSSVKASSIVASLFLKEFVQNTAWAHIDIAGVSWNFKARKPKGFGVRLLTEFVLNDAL

[4] = molecular target: Procathepsin L (Homo sapiens, UniProt P07711); assay: CTSL1 protease inhibition – biochemical, QFRET, 1536-well, counter-screen for M1/M17 aminopeptidase inhibitor project, dose response (AID 2214)
Sequence of Procathepsin L (P07711 whole entry): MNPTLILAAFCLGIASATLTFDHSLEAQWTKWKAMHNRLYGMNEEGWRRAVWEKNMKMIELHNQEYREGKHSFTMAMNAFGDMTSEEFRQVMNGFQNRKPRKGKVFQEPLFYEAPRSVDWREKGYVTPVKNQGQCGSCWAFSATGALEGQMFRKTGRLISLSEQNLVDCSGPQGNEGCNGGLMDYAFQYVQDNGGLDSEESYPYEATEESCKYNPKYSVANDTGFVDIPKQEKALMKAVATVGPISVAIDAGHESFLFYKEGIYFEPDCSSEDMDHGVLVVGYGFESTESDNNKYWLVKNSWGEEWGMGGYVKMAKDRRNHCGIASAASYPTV

[5] = blockers of CRF-binding protein–CRF-R2 complex – cell-based, uHTS hits, 384-well, dose response (AID 651639); format: functional, Homo sapiens; details: read-out: IC50_Mean
[6] = molecular target: T2, Corticotropin-releasing factor receptor 2/Corticotropin-releasing factor-binding protein; assay: activators of CRF receptor 2 with binding protein – uHTS hits, confirmation (AID 602473); format: functional; details: read-out: EC50_Mean
[7] = molecular target: T4, Estrogen receptor (Homo sapiens, UniProt P03372);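 note: potency for inhibiting coactivator peptide recruitment to the receptor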
T4 sequence (P03372 whole entry): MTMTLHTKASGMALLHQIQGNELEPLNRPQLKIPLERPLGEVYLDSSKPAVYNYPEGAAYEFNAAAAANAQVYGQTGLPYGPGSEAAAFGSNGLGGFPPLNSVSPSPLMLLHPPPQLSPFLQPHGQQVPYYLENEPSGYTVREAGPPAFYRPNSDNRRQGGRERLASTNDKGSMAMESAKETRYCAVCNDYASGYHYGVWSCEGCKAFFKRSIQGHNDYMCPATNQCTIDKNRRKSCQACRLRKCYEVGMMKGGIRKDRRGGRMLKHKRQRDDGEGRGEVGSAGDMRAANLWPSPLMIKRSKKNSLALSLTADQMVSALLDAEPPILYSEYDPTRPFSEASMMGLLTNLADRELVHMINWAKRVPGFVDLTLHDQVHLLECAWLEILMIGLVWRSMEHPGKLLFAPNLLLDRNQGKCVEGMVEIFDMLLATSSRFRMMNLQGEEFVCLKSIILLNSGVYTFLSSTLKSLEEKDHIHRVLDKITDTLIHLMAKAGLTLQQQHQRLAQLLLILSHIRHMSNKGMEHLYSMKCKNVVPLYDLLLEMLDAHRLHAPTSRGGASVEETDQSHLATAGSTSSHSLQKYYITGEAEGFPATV

[8] = molecular target: Estrogen receptor beta (Homo sapiens, UniProt Q92731);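 note: recombinant ER-beta bound to coactivator SRC1 peptide in presence of estradiol agonist; inhibitors block coactivator peptide binding and lower the FRET signal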
Sequence of Estrogen receptor beta (Q92731 whole entry): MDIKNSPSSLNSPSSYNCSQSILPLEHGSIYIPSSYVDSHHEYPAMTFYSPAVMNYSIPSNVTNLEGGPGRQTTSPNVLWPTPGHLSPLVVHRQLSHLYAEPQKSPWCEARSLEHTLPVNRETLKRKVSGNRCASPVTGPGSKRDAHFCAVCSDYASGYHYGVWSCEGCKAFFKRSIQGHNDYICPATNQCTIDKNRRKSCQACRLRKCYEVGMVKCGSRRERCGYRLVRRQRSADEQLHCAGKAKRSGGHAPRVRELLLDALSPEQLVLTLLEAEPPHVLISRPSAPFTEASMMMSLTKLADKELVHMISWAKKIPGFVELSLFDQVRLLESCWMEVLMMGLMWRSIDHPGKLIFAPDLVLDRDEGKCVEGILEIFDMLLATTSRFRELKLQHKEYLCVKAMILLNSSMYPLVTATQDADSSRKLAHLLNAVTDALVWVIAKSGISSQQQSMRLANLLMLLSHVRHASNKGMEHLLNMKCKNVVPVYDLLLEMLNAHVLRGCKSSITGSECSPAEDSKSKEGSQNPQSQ

[9] = molecular target: T5, Aminopeptidase N (Plasmodium falciparum FcB1/Columbia, UniProt O96935); assay: malaria alanyl aminopeptidase activity blockers – biochemical, fluorogenic H-Leu-NHMec substrate, 1536-well (AID 1445); parameters: species or system Plasmodium falciparum 3D7, 3D7
T5 sequence (O96935 whole entry): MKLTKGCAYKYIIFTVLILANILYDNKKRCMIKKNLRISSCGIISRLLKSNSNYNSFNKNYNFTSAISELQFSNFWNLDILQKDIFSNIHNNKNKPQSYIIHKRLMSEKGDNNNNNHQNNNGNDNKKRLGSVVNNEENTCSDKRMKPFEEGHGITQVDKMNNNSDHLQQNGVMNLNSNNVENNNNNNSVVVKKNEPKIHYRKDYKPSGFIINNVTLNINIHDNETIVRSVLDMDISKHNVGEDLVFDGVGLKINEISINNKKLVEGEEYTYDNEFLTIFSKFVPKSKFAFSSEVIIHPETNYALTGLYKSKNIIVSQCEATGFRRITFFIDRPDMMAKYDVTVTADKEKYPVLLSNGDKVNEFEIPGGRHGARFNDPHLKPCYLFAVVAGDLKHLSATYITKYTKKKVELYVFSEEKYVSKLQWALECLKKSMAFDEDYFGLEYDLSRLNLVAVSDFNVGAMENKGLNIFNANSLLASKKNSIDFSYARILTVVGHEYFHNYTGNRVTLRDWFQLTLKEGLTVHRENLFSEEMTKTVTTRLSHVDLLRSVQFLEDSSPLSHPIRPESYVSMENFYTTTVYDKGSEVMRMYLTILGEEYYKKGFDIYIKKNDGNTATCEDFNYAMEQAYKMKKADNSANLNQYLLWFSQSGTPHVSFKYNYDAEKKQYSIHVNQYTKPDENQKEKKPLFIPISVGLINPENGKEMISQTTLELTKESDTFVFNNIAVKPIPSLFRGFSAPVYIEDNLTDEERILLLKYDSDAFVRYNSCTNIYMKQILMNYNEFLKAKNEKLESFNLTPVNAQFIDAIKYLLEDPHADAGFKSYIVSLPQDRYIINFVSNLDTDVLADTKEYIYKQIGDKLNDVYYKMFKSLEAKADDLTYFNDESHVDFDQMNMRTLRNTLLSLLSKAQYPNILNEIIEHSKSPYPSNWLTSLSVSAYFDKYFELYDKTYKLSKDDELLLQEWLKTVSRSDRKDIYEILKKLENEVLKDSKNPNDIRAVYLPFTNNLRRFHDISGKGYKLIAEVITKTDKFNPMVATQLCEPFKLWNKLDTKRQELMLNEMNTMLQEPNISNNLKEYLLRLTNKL

- IC50 [1]: > 73.5 µM (not active)
- IC50 [2]: 10.1 µM (active)
- IC50 [3]: < 1 µM (active)
- IC50 [4]: 59.3 µM (not active)
- IC50 [5]: > 20 µM (inactive)
- EC50 [6]: > 53 µM (inactive)
Compound: COc1cc(NC(=O)CSc2nc3c(C)ccc(C)c3cc2C)c(C(=O)O)cc1OC

- IC50 [7]: 26.5 µM (active)
- IC50 [8]: 16.1 µM (active)
Compound: Cc1ccc(C(=O)CSC2=C(C#N)C(c3ccco3)CC(=O)N2)c(C)c1 (centres undefined)

Compound: COc1ccc(/C=N/NC(=O)c2[nH]c3ccc(Br)cc3c2-c2ccccc2)c(C(=O)O)c1OC
- IC50 [9]: 65.3 µM (active)
